Measured values as given in article PMC8482771 (ACS Omega, 2021).

Assays:
Type in all cases: cell-based
h-P2X2R [1] = molecular target: T1, h-P2X2R (Homo sapiens, UniProt Q9UBL9); test: Ca2+ influx assay
T1 sequence (Q9UBL9 1-471): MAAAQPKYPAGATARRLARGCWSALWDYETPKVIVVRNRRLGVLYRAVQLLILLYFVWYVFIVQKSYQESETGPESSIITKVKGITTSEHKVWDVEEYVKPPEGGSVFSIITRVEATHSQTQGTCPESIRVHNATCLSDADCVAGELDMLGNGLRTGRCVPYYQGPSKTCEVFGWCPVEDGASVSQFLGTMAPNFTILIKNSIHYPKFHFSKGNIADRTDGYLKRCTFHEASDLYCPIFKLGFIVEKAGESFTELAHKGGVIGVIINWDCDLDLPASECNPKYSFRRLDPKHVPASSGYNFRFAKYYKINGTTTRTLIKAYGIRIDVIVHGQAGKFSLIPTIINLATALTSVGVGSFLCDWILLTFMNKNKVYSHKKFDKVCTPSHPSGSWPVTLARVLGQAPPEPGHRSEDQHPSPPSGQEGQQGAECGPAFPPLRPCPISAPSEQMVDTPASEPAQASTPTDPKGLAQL

h-P2X4R [2] = molecular target: T2, h-P2X4R (Homo sapiens, UniProt Q99571); test: Ca2+ influx assay
T2 sequence (Q99571 1-388): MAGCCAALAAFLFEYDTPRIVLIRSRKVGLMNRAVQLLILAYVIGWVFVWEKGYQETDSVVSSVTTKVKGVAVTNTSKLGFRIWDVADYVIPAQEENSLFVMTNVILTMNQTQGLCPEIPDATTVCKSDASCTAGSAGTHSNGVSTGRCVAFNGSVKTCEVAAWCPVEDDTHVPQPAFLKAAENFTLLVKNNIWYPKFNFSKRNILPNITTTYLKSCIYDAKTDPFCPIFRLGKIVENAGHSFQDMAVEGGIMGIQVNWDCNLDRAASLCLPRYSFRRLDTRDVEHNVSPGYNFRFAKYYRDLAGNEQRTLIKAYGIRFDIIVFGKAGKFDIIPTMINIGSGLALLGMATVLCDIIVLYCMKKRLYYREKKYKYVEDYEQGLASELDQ

h-P2X5 receptor = h-P2X5 receptor (Homo sapiens, UniProt Q93086); test: Ca2+ influx assay
h-P2X5 receptor, sequence (Q93086 whole entry): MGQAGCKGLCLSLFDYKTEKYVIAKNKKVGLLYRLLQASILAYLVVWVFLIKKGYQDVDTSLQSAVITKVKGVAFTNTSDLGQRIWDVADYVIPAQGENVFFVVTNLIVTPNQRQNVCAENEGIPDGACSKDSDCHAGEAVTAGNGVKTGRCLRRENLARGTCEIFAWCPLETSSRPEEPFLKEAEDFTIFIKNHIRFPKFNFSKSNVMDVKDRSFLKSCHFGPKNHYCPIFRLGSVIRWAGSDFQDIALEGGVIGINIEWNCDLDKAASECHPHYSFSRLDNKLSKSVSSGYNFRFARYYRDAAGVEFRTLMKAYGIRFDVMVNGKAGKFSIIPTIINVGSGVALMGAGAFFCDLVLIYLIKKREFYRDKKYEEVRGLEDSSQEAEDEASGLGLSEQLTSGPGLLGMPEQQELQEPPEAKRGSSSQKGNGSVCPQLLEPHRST

h-P2X2R [3] = molecular target: T1, h-P2X2R; test: Mode of inhibition: ATP dose-response curve without and with inhibitor, h-P2X2R
h-P2X4R [4] = molecular target: T2, h-P2X4R; test: Mode of inhibition: ATP dose-response curve without and with inhibitor, h-P2X4R

For `Nc1ncnc2c1ncn2[C@@H]1O[C@H](COP(=O)(O)OP(=O)(O)OP(=O)(O)O)[C@@H](O)[C@H]1O` [ATP, adenosine triphosphate, reference compound], the EC50 (h-P2X2R [1]) was 1480 nM, the EC50 (h-P2X4R [2]) was 9.29 µM and the EC50 (h-P2X5 receptor) was 10.6 µM. For the same compound, the EC50 (h-P2X2R [3]) was 1080 nM and the EC50 (h-P2X4R [4]) was 2590 nM.
